Experimental data as given in US9464082B2, “Aryl and arylalkyl substituted pyrazolyl and pyrimidinyl tricyclic enones as antioxidant inflammation modulators” (AbbVie Inc., priority 2014, dated 2016).

Tested on: IFNγ-Induced NO Production
Assay: Nitric Oxide Suppression Assay (Suppression of IFNγ-Induced NO Production)
Format: cell-based
Details: RAW264.7; RAW 264.7 mouse macrophage cells; 2 hour pre-treatment with compound (3 μM to 0.3 nM, 10 point curve); 20 ng/mL interferon gamma, ~18 hour; Griess detection; n=2-3 in duplicates
Method in brief: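 Mouse RAW 264.7 macrophages pre-treated 2 h at 37 °C with compound (3 μM to 0.3 nM, 10 points; DMSO ≤1%), then stimulated with 20 ng/mL interferon gamma for ~18 h. Supernatant nitrite measured by Griess reaction, absorbance 520–550 nm. IC50 from curve fit of signal normalised to IFNγ alone, mean n=2-3 in duplicate.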

C[C@@H]1C(=O)C(C#N)=C[C@]2(c3ccccc3)c3c(cnn3Cc3ccc(Br)cc3)CC[C@@H]12 [Example 65, (5aS,6S,9aR)-1-(4-bromobenzyl)-6-methyl-7-oxo-9a-phenyl-4,5,5a,6,7,9a-hexahydro-1H-benzo[g]indazole-8-carbonitrile]
IC50: 109 nM

COc1cccc(-c2nc(C)nc3c2CC[C@H]2[C@H](C)C(=O)C(C#N)=C[C@]32c2ccccc2)c1 [Example 43, (6aS,7S,10aR)-4-(3-methoxyphenyl)-2,7-dimethyl-8-oxo-10a-phenyl-5,6,6a,7,8,10a-hexahydrobenzo[h]quinazoline-9-carbonitrile]
IC50: 16.5 nM

COc1ncc(-c2cccc(-c3c4c(nn3C)[C@@]3(c5ccccc5)C=C(C#N)C(=O)[C@@H](C)[C@@H]3CC4)c2)cn1 [Example 153, (5aS,6S,9aR)-3-[3-(2-methoxypyrimidin-5-yl)phenyl]-2,6-dimethyl-7-oxo-9a-phenyl-4,5,5a,6,7,9a-hexahydro-2H-benzo[g]indazole-8-carbonitrile]
IC50: 6.46 nM

COC(=O)c1ccc([C@]23C=C(C#N)C(=O)[C@@H](C)[C@@H]2CCc2cncnc23)cc1 [Example 64, methyl 4-[(6aS,7S,10aR)-9-cyano-7-methyl-8-oxo-6,6a,7,8-tetrahydrobenzo[h]quinazolin-10a(5H)-yl]benzoate]
IC50: 11 nM

Cc1nc(-c2ccc3[nH]cnc3c2)c2c(n1)[C@@]1(c3ccc(F)cc3)C=C(C#N)C(=O)[C@@H](C)[C@@H]1CC2 [Example 91, (6aS,7S,10aR)-4-(1H-benzimidazol-5-yl)-10a-(4-fluorophenyl)-2,7-dimethyl-8-oxo-5,6,6a,7,8,10a-hexahydrobenzo[h]quinazoline-9-carbonitrile]
IC50: 13.6 nM

C[C@@H]1C(=O)C(C#N)=C[C@]2(c3ccccc3)c3nc(-c4ccc(C(N)=O)cc4)ncc3CC[C@@H]12 [Example 136, 4-[(6aS,7S,10aR)-9-cyano-7-methyl-8-oxo-10a-phenyl-5,6,6a,7,8,10a-hexahydrobenzo[h]quinazolin-2-yl]benzamide]
IC50: 3.37 nM

C[C@@H]1C(=O)C(C#N)=C[C@]2(c3ccccc3)c3nn(C)c(-c4cncnc4)c3CC[C@@H]12 [Example 177, (5aS,6S,9aR)-2,6-dimethyl-7-oxo-9a-phenyl-3-(pyrimidin-5-yl)-4,5,5a,6,7,9a-hexahydro-2H-benzo[g]indazole-8-carbonitrile]
IC50: 10.8 nM

Cc1nc(-c2cccc(CCO)c2)c2c(n1)[C@@]1(c3ccccc3)C=C(C#N)C(=O)[C@@H](C)[C@@H]1CC2 [Example 47, (6aS,7S,10aR)-4-[3-(2-hydroxyethyl)phenyl]-2,7-dimethyl-8-oxo-10a-phenyl-5,6,6a,7,8,10a-hexahydrobenzo[h]quinazoline-9-carbonitrile]
IC50: 18.8 nM

COc1nc(-c2ccccc2)nc2c1CC[C@H]1[C@H](C)C(=O)C(C#N)=C[C@]21c1ccccc1 (racemic) [Example 8, rac-(6aS,7S,10aR)-4-methoxy-7-methyl-8-oxo-2,10a-diphenyl-5,6,6a,7,8,10a-hexahydrobenzo[h]quinazoline-9-carbonitrile]
IC50: 96.3 nM

COC(=O)c1ccc([C@]23C=C(C#N)C(=O)[C@@H](C)[C@@H]2CCc2c(-c4cncn4C)nc(C)nc23)cc1 [Example 175, methyl 4-[(6aS,7S,10aR)-9-cyano-2,7-dimethyl-4-(1-methyl-1H-imidazol-5-yl)-8-oxo-6,6a,7,8-tetrahydrobenzo[h]quinazolin-10a(5H)-yl]benzoate]
IC50: 2 nM

C[C@@H]1C(=O)C(C#N)=C[C@]2(Cc3ccccc3)c3nn(C)cc3CC[C@@H]12 (racemic) [Example 162, rac-(5aS,6S,9aR)-9a-benzyl-2,6-dimethyl-7-oxo-4,5,5a,6,7,9a-hexahydro-2H-benzo[g]indazole-8-carbonitrile]
IC50: 231 nM

COc1ccc([C@]23C=C(C#N)C(=O)[C@@H](C)[C@@H]2CCc2c(-c4cncnc4)nc(C)nc23)cc1 [Example 67, (6aS,7S,10aR)-10a-(4-methoxyphenyl)-2,7-dimethyl-8-oxo-4-(pyrimidin-5-yl)-5,6,6a,7,8,10a-hexahydrobenzo[h]quinazoline-9-carbonitrile]
IC50: 21.8 nM

CCNc1ncc2c(n1)[C@@]1(c3ccccc3)C=C(C#N)C(=O)[C@@H](C)[C@@H]1CC2 [Example 12, (6aS,7S,10aR)-2-(ethylamino)-7-methyl-8-oxo-10a-phenyl-5,6,6a,7,8,10a-hexahydrobenzo[h]quinazoline-9-carbonitrile]
IC50: 24.1 nM

C[C@@H]1C(=O)C(C#N)=C[C@]2(c3ccc(F)cc3)c3nn(C(=O)CN)cc3CC[C@@H]12 [Example 82, (5aS,6S,9aR)-9a-(4-fluorophenyl)-2-glycyl-6-methyl-7-oxo-4,5,5a,6,7,9a-hexahydro-2H-benzo[g]indazole-8-carbonitrile]
IC50: 31.3 nM

C[C@@H]1C(=O)C(C#N)=C[C@]2(c3ccccc3)c3nn(Cc4ccccc4)cc3CC[C@@H]12 (single isomer, unassigned) [Example 56]
IC50: 93.2 nM

C[C@@H]1C(=O)C(C#N)=C[C@]2(c3ccccc3)c3n[nH]c(-c4cnn(C)c4)c3CC[C@@H]12 [Example 89, (5aS,6S,9aR)-6-methyl-3-(1-methyl-1H-pyrazol-4-yl)-7-oxo-9a-phenyl-4,5,5a,6,7,9a-hexahydro-2H-benzo[g]indazole-8-carbonitrile]
IC50: 8.18 nM

C[C@@H]1C(=O)C(C#N)=C[C@]2(c3ccccc3)c3nn(C(=O)Oc4ccccc4)cc3CC[C@@H]12 [Example 37, phenyl (5aS,6S,9aR)-8-cyano-6-methyl-7-oxo-9a-phenyl-4,5,5a,6,7,9a-hexahydro-2H-benzo[g]indazole-2-carboxylate]
IC50: 60.5 nM

COC(=O)c1cccc([C@]23C=C(C(N)=O)C(=O)[C@@H](C)[C@@H]2CCc2cncnc23)c1 [Example 142, methyl 3-[(6aS,7S,10aR)-9-carbamoyl-7-methyl-8-oxo-6,6a,7,8-tetrahydrobenzo[h]quinazolin-10a(5H)-yl]benzoate]
IC50: 2280 nM

C[C@@H]1C(=O)C(C#N)=C[C@]2(c3ccccc3)c3nc(-c4ccccc4)ncc3CC[C@@H]12 (racemic) [Example 7, rac-(6aS,7S,10aR)-7-methyl-8-oxo-2,10a-diphenyl-5,6,6a,7,8,10a-hexahydrobenzo[h]quinazoline-9-carbonitrile]
IC50: 30.4 nM

COC(=O)c1ccc([C@]23C=C(C#N)C(=O)[C@@H](C)[C@@H]2CCc2c(-c4c(Br)ncn4C)nc(C)nc23)cc1 [Example 176, methyl 4-[(6aS,7S,10aR)-4-(4-bromo-1-methyl-1H-imidazol-5-yl)-9-cyano-2,7-dimethyl-8-oxo-6,6a,7,8-tetrahydrobenzo[h]quinazolin-10a(5H)-yl]benzoate]
IC50: 12.8 nM

C[C@@H]1C(=O)C(C#N)=C[C@]2(c3ccccc3)c3nc(Nc4ccccc4)nc(-c4cncnc4)c3CC[C@@H]12 [Example 16, (6aS,7S,10aR)-2-anilino-7-methyl-8-oxo-10a-phenyl-4-(pyrimidin-5-yl)-5,6,6a,7,8,10a-hexahydrobenzo[h]quinazoline-9-carbonitrile]
IC50: 7.8 nM

Cc1nc(Nc2cccnc2)c2c(n1)[C@@]1(c3ccccc3)C=C(C#N)C(=O)[C@@H](C)[C@@H]1CC2 [Example 147, (6aS,7S,10aR)-2,7-dimethyl-8-oxo-10a-phenyl-4-(pyridin-3-ylamino)-5,6,6a,7,8,10a-hexahydrobenzo[h]quinazoline-9-carbonitrile]
IC50: 48 nM

COc1nc(-c2ccccc2F)nc2c1CC[C@H]1[C@H](C)C(=O)C(C#N)=C[C@]21c1ccccc1 [Example 25, (6aS,7S,10aR)-2-(2-fluorophenyl)-4-methoxy-7-methyl-8-oxo-10a-phenyl-5,6,6a,7,8,10a-hexahydrobenzo[h]quinazoline-9-carbonitrile]
IC50: 37.8 nM

C[C@@H]1C(=O)C(C#N)=C[C@]2(c3ccccc3)c3n[nH]c(-c4ccc(NS(C)(=O)=O)cc4)c3CC[C@@H]12 [Example 112, N-{4-[(5aS,6S,9aR)-8-cyano-6-methyl-7-oxo-9a-phenyl-4,5,5a,6,7,9a-hexahydro-2H-benzo[g]indazol-3-yl]phenyl}methanesulfonamide]
IC50: 66.4 nM

COC(=O)n1cc(-c2nc(C)nc3c2CC[C@H]2[C@H](C)C(=O)C(C#N)=C[C@]32c2ccccc2)cn1 [Example 98, methyl 4-[(6aS,7S,10aR)-9-cyano-2,7-dimethyl-8-oxo-10a-phenyl-5,6,6a,7,8,10a-hexahydrobenzo[h]quinazolin-4-yl]-1H-pyrazole-1-carboxylate]
IC50: 1.5 nM

Cc1nc(-c2cncnc2)c2c(n1)[C@@]1(c3ccc(F)cc3)C=C(C#N)C(=O)[C@@H](C)[C@@H]1CC2 [Example 68, (6aS,7S,10aR)-10a-(4-fluorophenyl)-2,7-dimethyl-8-oxo-4-(pyrimidin-5-yl)-5,6,6a,7,8,10a-hexahydrobenzo[h]quinazoline-9-carbonitrile]
IC50: 33.6 nM

C[C@@H]1C(=O)C(C#N)=C[C@]2(c3ccccc3)c3nn(C)c(-c4cccc(-c5ccnnc5)c4)c3CC[C@@H]12 [Example 151, (5aS,6S,9aR)-2,6-dimethyl-7-oxo-9a-phenyl-3-[3-(pyridazin-4-yl)phenyl]-4,5,5a,6,7,9a-hexahydro-2H-benzo[g]indazole-8-carbonitrile]
IC50: 6.81 nM

Cc1noc(-c2ccc(-c3ncc4c(n3)[C@@]3(c5ccccc5)C=C(C#N)C(=O)[C@@H](C)[C@@H]3CC4)cc2)n1 [Example 173, (6aS,7S,10aR)-7-methyl-2-[4-(3-methyl-1,2,4-oxadiazol-5-yl)phenyl]-8-oxo-10a-phenyl-5,6,6a,7,8,10a-hexahydrobenzo[h]quinazoline-9-carbonitrile]
IC50: 19.7 nM

Cc1nc(-c2cnc(O)c(Br)c2)c2c(n1)[C@@]1(c3ccccc3)C=C(C#N)C(=O)[C@@H](C)[C@@H]1CC2 [Example 132, (6aS,7S,10aR)-4-(5-bromo-6-hydroxypyridin-3-yl)-2,7-dimethyl-8-oxo-10a-phenyl-5,6,6a,7,8,10a-hexahydrobenzo[h]quinazoline-9-carbonitrile]
IC50: 387 nM
